Assay results from patent US8648066B2 (Exelixis, Inc., priority 2009, dated 2014).

Each compound was assayed against mTOR/GbL/Raptor (mTORC1) (Homo sapiens, UniProt P42345) (assay: mTOR/GbL/Raptor (mTORC1) ELISA assay). Conditions: phosphorylation of 4E-BP1; 0.2 nM mTORC1, 10 μM ATP; read-out: IC50 in this assay (mTORC1 ELISA).
Format: biochemical
How it was run: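 ELISA read-out: phospho-4E-BP1 captured on Ni-chelate plates and detected with anti-phospho antibody plus HRP-anti-IgG luminescence. The kinase step ran 120 min at ambient temperature with 0.2 nM human mTORC1, 10 µM ATP, 50 nM His-4E-BP1, 10 mM MnCl2, pH 7.2 HEPES.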

Compared with `COc1ccc2c(N3CCOc4ccc(-c5ccc(-c6nc7ccccc7[nH]6)cc5)cc4C3)nc(C)nc2c1` [Example 240, 7-[4-(1H-benzimidazol-2-yl)phenyl]-4-[2-methyl-7-(methyloxy)quinoazlin-4-yl]-2,3,4,5-tetrahydro-1,4-benzoxazepine], `COc1ccc2c(N3CCOc4ccc(-c5ccc(-c6ncc[nH]6)cc5)cc4C3)nc(C)nc2c1` [Example 256, 7-[4-(1H-imidazol-2-yl)phenyl]-4-[2-methyl-7-(methyloxy)quinazolin-4-yl]-2,3,4,5-tetrahydro-1,4-benzoxazepine] is lower in IC50: ≥ 2000 nM for the first, 10 to 50 nM for the second.

First: Cc1nc2ccc(-c3ccc4c(c3)CN(c3ccnc5cc(F)ccc35)CCO4)cc2[nH]1 [Example 241, 4-(7-fluoroquinolin-4-yl)-7-(2-methyl-1H-benzimidazol-6-yl)-2,3,4,5-tetrahydro-1,4-benzoxazepine]
Second: CCNc1nc2ccc(-c3ccc4c(c3)CN(c3ccnc5cc(F)ccc35)CCO4)cc2[nH]1 [Example 268, N-ethyl-6-[4-(7-fluoroquinolin-4-yl)-2,3,4,5-tetrahydro-1,4-benzoxazepin-7-yl]-1H-benzimidazol-2-amine]
The IC50 of the first is higher: 250 to 1000 nM for the first, 50 to 250 nM for the second.

First: Cc1nc2ccc(-c3ccc4c(c3)CN(c3ccnc5cc(C#N)ccc35)CCO4)cc2[nH]1 [Example 242, 4-[7-(2-methyl-1H-benzimidazol-6-yl)-2,3-dihydro-1,4-benzoxazepin-4(5H)-yl]quinolin-7-carbonitrile]
Second: CCNc1nc2ccc(-c3ccc4c(c3)CN(c3cc(C)nc5ccccc35)CCO4)cc2[nH]1 [Example 246, N-ethyl-6-[4-(2-methylquinolin-4-yl)-2,3,4,5-tetrahydro-1,4-benzoxazepin-7-yl]-1H-benzimidazol-2-amine]
The IC50 of the first is higher: ≥ 2000 nM for the first, 50 to 250 nM for the second. The second is the more potent here.

`CCNC(=O)c1ccc(-c2ccc3c(c2)CN(c2ccnc4ccccc24)CCO3)cc1` [Example 243, N-ethyl-4-(4-quinolin-4-yl-2,3,4,5-tetrahydro-1,4-benzoxazepin-7-yl)benzamide] and `CCCNC(=O)c1ccc(-c2ccc3c(c2)CN(c2ccnc4ccccc24)CCO3)cc1` [Example 244, N-propyl-4-(4-quinolin-4-yl-2,3,4,5-tetrahydro-1,4-benzoxazepin-7-yl)benzamide] fall in the same range of IC50: 50 to 250 nM for the first, 50 to 250 nM for the second.

Compared with `CCc1ncnc(N2CCOc3ccc(-c4cnc5nc(C)[nH]c5c4)cc3C2)c1C` [Example 245, 4-(6-ethyl-5-methylpyrimidin-4-yl)-7-(2-methyl-1H-imidazo[4,5-b]pyridin-6-yl)-2,3,4,5-tetrahydro-1,4-benzoxazepine], `Cc1nc2ncc(-c3ccc4c(c3)CN(c3ncnc(C)c3C)CCO4)cc2[nH]1` [Example 257, 4-(5,6-dimethylpyrimidin-4-yl)-7-(2-methyl-1H-imidazo[4,5-b]pyridin-6-yl)-2,3,4,5-tetrahydro-1,4-benzoxazepine] is higher in IC50: 50 to 250 nM for the first, 250 to 1000 nM for the second. The first is the more potent here.

`CCNc1nc2ccc(-c3ccc4c(c3)CN(c3cc(C)nc5cc(OC)ccc35)CCO4)cc2[nH]1` [Example 247, N-ethyl-6-{4-[2-methyl-7-(methyloxy)quinolin-4-yl]-2,3,4,5-tetrahydro-1,4-benzoxazepin-7-yl}-1H-benzimidazol-2-amine] and `CCNc1nc2ccc(-c3ccc4c(c3)CN(c3ccnc5cc(OC)c(OC)cc35)CCO4)cc2[nH]1` [Example 261, 6-{4-[6,7-bis(methyloxy)quinolin-4-yl]-2,3,4,5-tetrahydro-1,4-benzoxazepin-7-yl}-N-ethyl-1H-benzimidazol-2-amine] fall in the same range of IC50: 250 to 1000 nM for the first, 250 to 1000 nM for the second.

Compared with `CC1(C)CCc2ncnc(N3CCOc4ccc(-c5cnc6sc(N)nc6c5)cc4C3)c2C1` [Example 248, 6-[4-(6,6-dimethyl-5,6,7,8-tetrahydroquinazolin-4-yl)-2,3,4,5-tetrahydro-1,4-benzoxazepin-7-yl][1,3]thiazolo[5,4-b]pyridin-2-amine], `CC1(C)CCc2ncnc(N3CCOc4ccc(-c5cnc6[nH]ncc6c5)cc4C3)c2C1` [Example 263, 4-(6,6-dimethyl-5,6,7,8-tetrahydroquinazolin-4-yl)-7-(1H-pyrazolo[3,4-b]pyridin-5-yl)-2,3,4,5-tetrahydro-1,4-benzoxazepine] is higher in IC50: ≤ 10 nM for the first, 50 to 250 nM for the second. The first is the more potent here.

First: Cc1ncnc(N2CCOc3ccc(-c4ccc5[nH]nc(N)c5c4)cc3C2)c1Cc1ccc(F)cc1 [Example 249, 5-(4-{5-[(4-fluorophenyl)methyl]-6-methylpyrimidin-4-yl}-2,3,4,5-tetrahydro-1,4-benzoxazepin-7-yl)-1H-indazol-3-amine]
Second: CCNc1nc2ncc(-c3ccc4c(c3)CN(c3ncnc(C)c3Cc3ccc(F)cc3)CCO4)cc2[nH]1 [Example 250, N-ethyl-6-(4-{5-[(4-fluorophenyl)methyl]-6-methylpyrimidin-4-yl}-2,3,4,5-tetrahydro-1,4-benzoxazepin-7-yl)-1H-imidazo[4,5-b]pyridin-2-amine]
The IC50 of the first is higher: 50 to 250 nM for the first, ≤ 10 nM for the second.

First: Cc1nc(N2CCOc3ccc(-c4ccc(-c5ncc[nH]5)cc4)cc3C2)c2ccccc2n1 [Example 251, 7-[4-(1H-imidazol-2-yl)phenyl]-4-(2-methylquinazolin-4-yl)-2,3,4,5-tetrahydro-1,4-benzoxazepine]
Second: Cc1nc(N2CCOc3ccc(-c4ccc(N)nc4)cc3C2)c2ccccc2n1 [Example 266, 5-[4-(2-methylquinazolin-4-yl)-2,3,4,5-tetrahydro-1,4-benzoxazepin-7-yl]pyridin-2-amine]
The IC50 of the first is lower: 10 to 50 nM for the first, 250 to 1000 nM for the second. The first is the more potent here.

`CC(O)c1nc2cc(-c3ccc4c(c3)CN(c3ncnc5c3CC(C)(C)CC5)CCO4)cnc2[nH]1` (stereo not drawn) [Example 252, 1-{6-[4-(6,6-dimethyl-5,6,7,8-tetrahydroquinazolin-4-yl)-2,3,4,5-tetrahydro-1,4-benzoxazepin-7-yl]-3H-imidazo[4,5-b]pyridin-2-yl}ethanol] and `CCNc1nc2ncc(-c3ccc4c(c3)CN(c3ncnc5c3CC(C)(C)CC5)CCO4)cc2[nH]1` [Example 264, 6-[4-(6,6-dimethyl-5,6,7,8-tetrahydroquinbazolin-4-yl)-2,3,4,5-tetrahydro-1,4-benzoxazepin-7-yl]-N-ethyl-1H-imidazo[4,5-b]pyridin-2-amine] cannot be ordered by IC50: ≤ 10 nM for the first, ≤ 10 nM for the second.

First: Cc1nc2ccc(-c3ccc4c(c3)CN(c3ccnc(Nc5ccccc5)n3)CCO4)cc2[nH]1 [Example 253, 4-[7-(2-methyl-1H-benzimidazol-6-yl)-2,3-dihydro-1,4-benzoxazepin-4(5H)-yl]-N-phenylpyrimidin-2-amine]
Second: CCNc1nc2ccc(-c3ccc4c(c3)CN(c3nc(NC)nc5ccccc35)CCO4)cc2[nH]1 [Example 269, 4-{7-[2-(ethylamino)-1H-benzimidazol-6-yl]-2,3-dihydro-1,4-benzoxazepin-4(5H)-yl}-N-methylquinazolin-2-amine]
The IC50 of the first is lower: 50 to 250 nM for the first, 250 to 1000 nM for the second. The first is the more potent here.

`CCc1nc2ccc(-c3ccc4c(c3)CN(c3ncnc5c3CC(C)(C)CC5)CCO4)cc2[nH]1` [Example 254, 4-(6,6-dimethyl-5,6,7,8-tetrahydroquinazolin-4-yl)-7-(2-ethyl-1H-benzimidazol-6-yl)-2,3,4,5-tetrahydro-1,4-benzoxazepine] and `CCNc1nc2ccc(-c3ccc4c(c3)CN(c3ncnc5c3CC(C)(C)CC5)CCO4)cc2[nH]1` [Example 255, 6-[4-(6,6-dimethyl-5,6,7,8-tetrahydroquinazolin-4-yl)-2,3,4,5-tetrahydro-1,4-benzoxazepin-7-yl]-N-ethyl-1H-benzimidazol-2-amine] cannot be ordered by IC50: ≤ 10 nM for the first, ≤ 10 nM for the second.

`COc1ccc2c(N3CCOc4ccc(-c5ccc6nc(C)[nH]c6c5)cc4C3)nc(C)nc2c1` [Example 258, 7-(2-methyl-1H-benzimidazol-6-yl)-4-[2-methyl-7-(methyloxy)quinoazolin-4-yl]-2,3,4,5-tetrahydro-1,4-benzoxazepine] and `COc1ccc2c(N3CCOc4ccc(-c5ccc(N)nc5)cc4C3)nc(C)nc2c1` [Example 273, 5-{4-[2-methyl-7-(methyloxy)quinazolin-4-yl]-2,3,4,5-tetrahydro-1,4-benzoxazepin-7-yl}pyridin-2-amine] fall in the same range of IC50: 250 to 1000 nM for the first, 250 to 1000 nM for the second.

Compared with `CCNc1nc2ccc(-c3ccc4c(c3)CN(c3ncnc5cc(OC)c(OC)cc35)CCO4)cc2[nH]1` [Example 259, 6-{4-[6,7-bis(methyloxy)quinazolin-4-yl]-2,3,4,5-tetrahydro-1,4-benzoxazepin-7-yl}-N-ethyl-1H-benzimidazol-2-amine], `CCNc1nc2ccc(-c3ccc4c(c3)CN(c3nc(C)nc5cc(OC)c(OC)cc35)CCO4)cc2[nH]1` [Example 271, N-ethyl-6-{4-[2-methyl-6,7-bis(methyloxy)quinazolin-4-yl]-2,3,4,5-tetrahydro-1,4-benzoxazepin-7-yl}-1H-benzimidazol-2-amine] is higher in IC50: 50 to 250 nM for the first, 250 to 1000 nM for the second.

Compared with `CCNc1nc2ccc(-c3ccc4c(c3)CN(c3nc(CC)nc5ccccc35)CCO4)cc2[nH]1` [Example 260, N-ethyl-6-[4-(2-ethylquinazolin-4-yl)-2,3,4,5-tetrahydro-1,4-benzoxazepin-7-yl]-1H-benzimidazol-2-amine], `CCNc1nc(N2CCOc3ccc(-c4ccc5nc(NCC)[nH]c5c4)cc3C2)c2ccccc2n1` [Example 270, N-ethyl-4-{7-[2-(ethylamino)-1H-benzimidazol-6-yl]-2,3-dihydro-1,4-benzoxazepin-4(5H)-yl}quinazolin-2-amine] is higher in IC50: 50 to 250 nM for the first, 250 to 1000 nM for the second.

First: CC1(C)CCc2ncnc(N3CCOc4ccc(-c5ccc6[nH]c(C(F)F)nc6c5)cc4C3)c2C1 [Example 265]
Second: COc1ccc2c(N3CCOc4ccc(-c5cnc6[nH]ccc6c5)cc4C3)nc(C)nc2c1 [Example 267, 4-[2-methyl-7-(methyloxy)quinazolin-4-yl]-7-(1H-pyrrolo[2,3-b]pyridin-5-yl)-2,3,4,5-tetrahydro-1,4-benzoxazepine]
The IC50 of the first is lower: ≤ 10 nM for the first, 250 to 1000 nM for the second. The first is the more potent here.

`COc1cc2nccc(N3CCOc4ccc(-c5ccc(-c6ncc[nH]6)cc5)cc4C3)c2cc1OC` [Example 272, 4-[6,7-bis(methyloxy)quinolin-4-yl]-7-[4-(1H-imidazol-2-yl)phenyl]-2,3,4,5-tetrahydro-1,4-benzoxazepine] showed an IC50 of 50 to 250 nM.
